In the assay the test system is Aspergillus niger ATCC 6275. Put plainly: Microplate growth inhibition / MIC and FIC index (synergy) test, optical density at 620 nm. It is filed as cell-based. The following applies: for microbial growth percentage: 0 A. The text has this: 1] with: • MIC of A with B: minimum concentration of product A in the combination A+B which makes it possible to obtain an inhibitory effect; • MIC of B with A: minimum concentration of product B in the combination A+B which makes it possible to obtain an inhibitory effect; • MIC of A: minimum inhibitory concentration of product A alone; • MIC of B: minimum inhibitory concentration of product B alone.
When the FIC index value is less than or equal to 1, it is considered that the combination of test compounds has a synergistic effect.
The microbial strain Aspergillus niger ATCC 6275, and a double-concentration Sabouraud broth liquid culture medium supplemented with polyoxyethylenated (20 EO) sorbitan monopalmitate (Tween 40 from Croda) and Phytagel© BioReagent were used (i.e. a mixture of 5 g of Phytagel+0.6 g of Tween 40+60 g of Sabouraud broth).
A 96-well microplate at an incubation temperature of 32.5° C. is used.
The incubation time of the microplate is: • from 24 to 30 h under aerobic conditions for microbial Aspergillus niger ATCC 6275; • from 18 to 24 h under aerobic conditions for Candida albicans ATCC 10231, Pseudomonas aeruginosa ATCC 9027 and Staphylococcus aureus ATCC 6538; Tests
A 10% (weight/volume) stock solution was prepared by mixing 1 g of compound in 9 ml of aqueous 1%0 agar solution. Successive dilutions were made with the 1%0 agar solution.
50 μl of each of the daughter solutions obtained containing compound A or B are added to the microplate wells. 100 μl of Sabouraud liquid nutrient broth inoculated at double concentration with the Aspergillus niger strain and 50 μl of aqueous 1%0 agar solution are also added thereto.
50 μl of each of the daughter solutions obtained containing compound A and 50 μl of each of the daughter solutions obtained containing compound B are added to the microplate wells. 100 μl of Sabouraud liquid nutrient broth inoculated at double concentration with the strain Aspergillus niger are also added thereto.
A positive microbial growth control was also prepared. The positive microbial growth control corresponds to the mixture of 100 μl of aqueous 1%0 agar solution with 100 μl of Sabouraud liquid nutrient broth inoculated at double concentration with the strain Aspergillus niger in the absence of compounds A and B.
An absorbance control was performed in parallel on compounds A and B alone. This control corresponds to 100 μl of double concentration sterile Sabouraud liquid nutrient broth+100 μl of double concentration compound A or B.
In the three cases (absorbance control, growth control and test), the final volume present in each of the microplate wells is 200 μl.
In the two cases (test and control), the inoculum represents the concentration of the Aspergillus niger strain present in the final volume of the wells (200 μl) and is between 2 and 6×10^5 cfu/ml of Aspergillus niger.

Molecules are shown by their SMILES.

In the case of `CC(=O)c1ccc(O)cc1` [B, 4-hydroxyacetophenone], the microbial growth percentage (0.0625 weight % B) came to 86%, the microbial growth percentage (0.125 weight % B) came to 72%, the microbial growth percentage (0.25 weight % B) came out at 79% and the microbial growth percentage (0.5 weight % B) amounted to 6%. For the same compound, under “first concentration giving growth <= 25%”, the “% MIC of B alone” value stood at 0.5%.

The values are drawn from US12576015B2, “Antimicrobial mixture containing 4-(3-ethoxy-4-hydroxyphenyl)butan-2-one and an alcohol compound, and cosmetic composition containing same” (L'OREAL, priority 2018, dated 2026).
